{"source": "paper PMC7600679", "about": "“Benzoxazole-Based Metal Complexes to Reverse Multidrug Resistance in Bacteria” (Antibiotics, 2020)", "key": {"[1]": {"system": "S. aureus ATCC 25923", "assay": "Real-time ethidium bromide accumulation (efflux pump inhibition)", "type": "cell-based, Staphylococcus aureus", "settings": "compounds at ¼ MIC, EB 1 μg/mL, minute 30", "method": "(§1) Since multidrug resistance EPs are very important factors contributing to multidrug resistance (MDR) in both Gram-positive and Gram-negative bacteria, the inhibition of these pumps could reverse the resistant phenotype and restore the activity of antibiotics. The effect of compounds on ethidium bromide (EB) accumulation was determined by the automated EB method. This assay was used to determine how much of the fluorescent dye and pump substrate EB was accumulated by the bacterial cells in the presence of the tested compounds. The real-time accumulation of EB was monitored for 30 min in both S. aureus and E. coli strains.\n(§2) The accumulation of the efflux pump substrate EB was monitored by the automated EB method using a LightCycler real-time thermocycler (LightCycler 1.5, Roche, Indianapolis, IN, USA). An aliquot of an overnight culture of the S. aureus strains in TSB medium was inoculated into fresh TSB medium, and it was incubated until it reached an optical density (OD) of 0.6 at 600 nm. In the case of E. coli strains, the medium applied in the assay was LB broth; the preparation of the inoculum was similar to the one of S. aureus. The cells were washed with phosphate buffered saline (PBS; pH 7.4) and centrifuged at 13,000 × g for 3 min, the pellets were re-suspended in PBS (pH 7.4), and the OD was calibrated to 0.6 at 600 nm. The compounds were measured at ¼ MIC concentration (in double-concentrated form) to the EB solution in PBS. The final concentration of EB was determined according to the MIC and the fluorescent signal produced by this amount of EB. In the case of all strains, the concentration of EB was 1 μg/mL. Then, 10 μL of the EB solution plus the compound were pipetted into standard glass capillary tubes of 20 µL maximum volume (Roche, Indianapolis, USA), and 10 μL of bacterial culture (OD of 0.6 at 600 nm) were transferred to the capillaries. The capillaries containing the samples were placed into the carousel, and the fluorescence was monitored at the FL-2 channel in every minute on a real-time basis.\n(§3) Based on the data obtained, the relative fluorescence index (RFI) of the last time point (minute 30) was determined as follows:RFI = (RFtreated − RFuntreated)/RFuntreated(1) where RFtreated is the relative fluorescence (RF) at the last time point of the EB retention curve in the presence of an inhibitor, and RFuntreated is the relative fluorescence at the last time point of the EB retention curve of the untreated control having the solvent control (DMSO)."}, "[2]": {"system": "S. aureus 272123 (MRSA)", "assay": "Real-time ethidium bromide accumulation (efflux pump inhibition)", "type": "cell-based, Staphylococcus aureus", "settings": "compounds at ¼ MIC (3 at 12.5 µM), VER at 25 µM, EB 1 μg/mL, minute 30", "method": "as §1, §2, §3"}, "[3]": {"system": "Chromobacterium violaceum 026", "assay": "Minimum inhibitory concentration (broth microdilution, CLSI)", "type": "cell-based", "settings": "C. violaceum 026", "method": "(§4) The following bacterial strains were applied in the QS tests: C. violaceum 026 as sensor strain and E. cloacae 31298 isolated from clinical wound (used as N-acyl-homoserine lactone (AHL) producer); this strain induced pigment production by C. violaceum and is a model strain to study QS interactions.\n(§5) The minimum inhibitory concentrations (MICs) of compounds were determined in 96-well plates based on the Clinical and Laboratory Standard Institute guidelines (CLSI guidelines). The compounds were diluted in 100 μL of MHB. Then, 10^−4 dilution of an overnight bacterial culture in 100 μL of medium were added to each well, with the exception of the medium control wells."}, "[4]": {"system": "Enterobacter cloacae 31298", "assay": "Minimum inhibitory concentration (broth microdilution, CLSI)", "type": "cell-based", "settings": "E. cloacae 31298", "method": "as §4, §5"}, "[5]": {"system": "E. coli AG100", "assay": "Real-time ethidium bromide accumulation (efflux pump inhibition, AcrAB-TolC)", "type": "cell-based, Escherichia coli", "settings": "compounds at ¼ MIC, EB 1 μg/mL, minute 30", "method": "as §1, §2, §3"}, "[6]": {"system": "E. coli AG100 A", "assay": "Real-time ethidium bromide accumulation (efflux pump inhibition)", "type": "cell-based, Escherichia coli", "settings": "compounds at ¼ MIC, EB 1 μg/mL, minute 30", "method": "as §1, §2, §3"}, "[7]": {"system": "S. aureus ATCC 25923", "assay": "Anti-biofilm effect (crystal violet)", "type": "cell-based, Staphylococcus aureus", "settings": "compound at ¼ MIC, 48 h, 30 °C, vs untreated biofilm mass", "method": "The effect of ligands and their metal complexes on biofilm formation was evaluated on the reference S. aureus ATCC 25923 strain. The biofilm inhibition (%) was calculated based on the mean of absorbance units.\nThe biofilm production of the S. aureus ATCC 25923 strain was studied in 96-well plates using TSB broth in the presence of compounds. […] The final volume was 200 μL in each well. The samples were incubated at 30 °C for 48 h with gentle agitation (100 rpm). Then, the medium was removed, and the plate was washed with tap water to discard unattached cells. 200 μL CV (0.1% [v/v]) was added to the wells and incubated for 15 min at room temperature. CV was removed from the wells and the plate was washed again with tap water. 200 μL 70% ethanol was transferred to each well and the biofilm formation was determined by measuring the OD at 600 nm using Multiscan EX ELISA reader (Thermo Labsystems, Cheshire, CT, USA). The anti-biofilm effect of compounds was determined as the percentage (%) of decrease in biofilm formation. The assay was repeated a minimum of three times. The results were calculated using a t-test and p-values of <0.001 were considered significant."}, "[8]": {"system": "C. violaceum 026 sensor strain with AHL producer E. cloacae 31298", "assay": "Quorum sensing inhibition (agar diffusion, violacein production)", "type": "cell-based, Chromobacterium violaceum", "settings": "disc with 10 μL of 1 mM stock; reduction of violacein zone", "method": "as §4\nLB* was applied for these experiments. The sensor strain C. violaceum 026 and the AHL producer strains E. cloacae 31298 were inoculated as parallel lines and incubated at room temperature for 24–48 h. The inhibition of bacterial communication was determined by the agar diffusion method. Filter paper discs (7.0 mm in diameter) were impregnated with 10 μL of stock solutions (1 mM) of the compounds in DMSO. The discs were placed between the parallel lines of the sensor and the AHL producer strains. The plates were kept at room temperature for another 24–48 h, and the interactions between the strains and compounds were determined as the reduction in the size of the zone of purple pigment (violacein) production in millimeters. PMZ was applied as a positive control."}}}
{"smiles": "[Fe+3].[O-]C(=Cc1nc2ccccc2o1)C(F)(F)F.[O-]C(=Cc1nc2ccccc2o1)C(F)(F)F.[O-]C(=Cc1nc2ccccc2o1)C(F)(F)F", "note": "[Compound 12]", "values": [{"measurement": "Relative fluorescence index (RFI)", "setting": "[1]", "value": "−0.02"}, {"measurement": "Relative fluorescence index (RFI)", "setting": "[2]", "value": "−0.02"}, {"measurement": "MIC", "setting": "[3]", "value": ">100", "unit": "µM"}, {"measurement": "MIC", "setting": "[4]", "value": ">100", "unit": "µM"}, {"measurement": "Relative fluorescence index (RFI)", "setting": "[5]", "value": 0.04}, {"measurement": "Relative fluorescence index (RFI)", "setting": "[6]", "value": 0.09}, {"measurement": "Biofilm inhibition", "setting": "[7]", "value": 75, "unit": "%"}]}
{"smiles": "O=C(Cc1nc2ccccc2o1)C(F)F", "note": "[Compound 3]", "values": [{"measurement": "Relative fluorescence index (RFI)", "setting": "[1]", "value": "−0.01"}, {"measurement": "Relative fluorescence index (RFI)", "setting": "[2]", "value": 0.13}, {"measurement": "MIC", "setting": "[3]; Chromobacterium violaceum", "value": "> 100", "unit": "µM"}, {"measurement": "MIC", "setting": "[4]; Enterobacter cloacae", "value": "> 100", "unit": "µM"}, {"measurement": "Inhibition zone (quorum sensing)", "setting": "[8]", "value": 56, "unit": "mm"}, {"measurement": "Relative fluorescence index (RFI)", "setting": "[5]", "value": "−0.07"}, {"measurement": "Relative fluorescence index (RFI)", "setting": "[6]", "value": "−0.03"}, {"measurement": "Biofilm inhibition", "setting": "[7]", "value": 16.4, "unit": "%"}]}
{"smiles": "[O-]C(=Cc1nc2ccccc2o1)C(F)(F)Cl.[O-]C(=Cc1nc2ccccc2o1)C(F)(F)Cl.[Zn+2]", "note": "[Compound 5]", "values": [{"measurement": "Relative fluorescence index (RFI)", "setting": "[1]", "value": 0.03}, {"measurement": "Relative fluorescence index (RFI)", "setting": "[2]", "value": "−0.13"}, {"measurement": "MIC", "setting": "[3]", "value": ">100", "unit": "µM"}, {"measurement": "MIC", "setting": "[4]", "value": ">100", "unit": "µM"}, {"measurement": "Inhibition zone (quorum sensing)", "setting": "[8]", "value": 16, "unit": "mm"}, {"measurement": "Relative fluorescence index (RFI)", "setting": "[5]", "value": 0.37}, {"measurement": "Relative fluorescence index (RFI)", "setting": "[6]", "value": "−0.19"}]}
